Patent US9005670B2, “Use of histone acetyltransferase inhibitors as novel anti-cancer therapies” (The Johns Hopkins University, priority 2010, dated 2015)

Assays:
WM983A melanoma cells = assay: 3H-thymidine incorporation, WM983A; details: Homo sapiens, read-out: IC50 (proliferation, 3H-thymidine incorporation)
D54 glioblastoma cells = assay: AlamarBlue growth inhibition, D54; format: cell-based; details: D54, 72 hours
Protocol: Dose response curves were generated using the AlamarBlue® assay (Invitrogen, Carlsbad, Calif.).
When inhibition was assessed using the AlamarBlue® assay (Invitrogen, Carlsbad, Calif.), cells were initially seeded at 500 cells per well in a 96-well plate. AlamarBlue® is a non-toxic reagent that measures cellular metabolic activity. Its main ingredient is resazurin, a non-fluorescent indicator dye that is reduced to bright red-fluorescent resorufin in metabolically active cells. AlamarBlue® was added to growth medium at 1/10 of the total volume (e.g., 20 μl in 200 μl total volume). […] Fluorescence reading was taken from the same plate every day for 5 days to ensure that the saturation point was not reached. Fluorescence intensity is proportional to the number of live cells in the plate.

Sas2/4/5 complex = biological target: T1, Sas2/4/5 complex (Saccharomyces cerevisiae, UniProt P40963); assay: SAS complex direct radioactive HAT assay; format: biochemical; details: 10 μM compound; read-out: Percent inhibition of acetyltransferase, Sas
T1 construct: made in house; host or cells: E. coli BL21-CodonPlus(DE3)-RIL
T1 sequence (P40963 whole entry): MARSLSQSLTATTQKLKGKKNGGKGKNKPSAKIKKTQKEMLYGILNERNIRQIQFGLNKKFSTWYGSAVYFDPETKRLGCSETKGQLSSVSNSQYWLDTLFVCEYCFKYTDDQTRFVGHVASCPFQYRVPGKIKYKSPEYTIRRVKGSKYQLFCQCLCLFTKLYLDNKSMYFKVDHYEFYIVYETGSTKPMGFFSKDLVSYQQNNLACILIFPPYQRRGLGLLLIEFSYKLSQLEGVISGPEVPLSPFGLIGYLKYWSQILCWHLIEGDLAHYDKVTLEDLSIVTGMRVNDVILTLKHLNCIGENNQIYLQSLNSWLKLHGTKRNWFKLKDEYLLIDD
T1 sequence (Q04003 whole entry partner): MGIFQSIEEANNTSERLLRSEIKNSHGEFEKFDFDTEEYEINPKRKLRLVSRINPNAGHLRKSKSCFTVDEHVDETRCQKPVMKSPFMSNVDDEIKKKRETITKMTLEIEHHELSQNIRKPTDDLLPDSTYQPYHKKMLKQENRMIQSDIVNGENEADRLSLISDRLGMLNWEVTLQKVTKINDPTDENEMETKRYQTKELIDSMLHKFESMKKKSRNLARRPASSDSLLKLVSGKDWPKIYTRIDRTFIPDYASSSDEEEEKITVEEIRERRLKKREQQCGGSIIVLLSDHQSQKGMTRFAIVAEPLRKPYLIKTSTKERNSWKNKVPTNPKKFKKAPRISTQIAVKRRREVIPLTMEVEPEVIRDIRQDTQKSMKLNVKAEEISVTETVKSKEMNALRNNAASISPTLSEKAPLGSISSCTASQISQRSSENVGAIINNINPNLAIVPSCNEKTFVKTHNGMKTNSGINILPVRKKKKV
T1 sequence (Q99314 whole entry partner): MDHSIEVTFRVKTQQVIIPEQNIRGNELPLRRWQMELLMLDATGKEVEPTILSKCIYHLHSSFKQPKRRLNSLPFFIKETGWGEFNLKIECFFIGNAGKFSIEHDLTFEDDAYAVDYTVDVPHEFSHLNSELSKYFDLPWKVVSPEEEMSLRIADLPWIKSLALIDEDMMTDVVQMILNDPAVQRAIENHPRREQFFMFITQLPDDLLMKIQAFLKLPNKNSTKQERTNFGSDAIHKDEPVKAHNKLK
Protocol: (§1) PCAF reactions were performed in 100 mM HEPES, pH 7.9, and contained 200 μM TPP, 5 mM MgCl2, 1 mM DTT, 50 mM NaCl, 0.05 mg/mL BSA, 200 μM NAD, 2.4 mM α-KG, 30 μM acetyl-CoA, 0.037 units α-KGDH, 3.3% DMSO, and 10 μM inhibitor. Reactions took place at 30° C. Reactions were initiated by addition of 10 nM PCAF and were followed at 340 nm over the linear portion of the curve below 10% turnover. AANAT reactions were performed in 100 mM NH4 OAc, pH 6.8, and contained 200 μM TPP, 5 mM MgCl2, 1 mM DTT, 50 mM NaCl, 0.05 mg/mL BSA, 200 μM NAD, 2.4 mM α-KG, 200 μM AcCoA, 0.1 units α-KGDH, 3.3% DMSO, and 10 μM inhibitor. Reactions took place at 25° C. Reactions were initiated with addition of 65 nM AANAT, and followed at 340 nm, as above. Percent inhibition values were compared to those with p300, which were repeated using the protocol given above. […]
(§2) HAT assays with yeast GCN5, SAS complex, MOZ, and Rtt109/Vps75 complex used the direct radioactive assay described above. […] The amount of enzyme used in each assay was estimated by comparing Coomassie Blue staining of samples with bovine serum albumin standards, analyzed by SDS-PAGE. […] The rate of ^14C-incorporation into histone H3 was quantified by autoradiography. […]

[1] = test system: three melanoma and three non-small cell lung cancer lines; assay: 3H-thymidine incorporation, melanoma and lung cancer lines; format: cell-based, human; details: 24 hours; C646 10 μM, Lys-CoA-Tat 25 μM
Source text: The following cell lines were used: WM35 (melanoma), WM983A (melanoma), 1205Lu (melanoma), H23 (NSCLC), H838 (NSCLC), and H1395 (NSCLC). Melanoma cells were maintained in Dulbecco's Modified Eagle Medium. NSCLCs were maintained in RPMI Medium 1640. Both types of media were supplemented with 10% fetal bovine serum (FBS), penicillin-streptomycin, and L-glutamine. Media, pen-strep, and L-glutamine were purchased from Invitrogen. FBS was purchased from Gemini Bio-Products (#100106). […] Compound stocks (10-20 mM in anhydrous DMSO) were directly added to culture media at desired concentrations. DMSO concentration was kept constant at 0.2% between different treatment conditions. Cells were seeded in 96-well plates at ˜5000 cells per well on average, depending on each cell line's doubling time. After attachment, cells were treated with p300 inhibitors, control compounds, or DMSO for 24 h. After treatment, ^3H-thymidine (1 mCi/ml stock) was added to media at 10 μCi/ml final concentration. Cells were incubated for an additional 5 hours, then trypsinized and collected onto a filter mat using a Cell Harvester (PerkinElmer). Radioactivity was measured with a MicroBeta plate reader (PerkinElmer). Each sample was tested in triplicate.

[2] = reaction with beta-mercaptoethanol (absorbance spectrum); format: physicochemical; details: 10 mM beta-mercaptoethanol, up to one hour
WM35 melanoma cells = assay: senescence-associated beta galactosidase staining; format: cell-based, human; details: 72 hours, low and high serum concentrations
Protocol: FIG. 14A includes scatter plots. […] WM35 melanoma cells were also treated with camptothecin as a positive control for apoptosis. FIGS. 14B and 14C include images of the treated cells stained for senescence-associated beta galactosidase.

yeast GCN5 = biological target: T2, yeast GCN5 (Saccharomyces cerevisiae, UniProt Q03330); assay: GCN5 direct radioactive HAT assay; format: biochemical; details: 10 μM compound; read-out: Percent inhibition of acetyltransferase, GCN5
T2 construct: made in house
T2 sequence (Q03330 whole entry): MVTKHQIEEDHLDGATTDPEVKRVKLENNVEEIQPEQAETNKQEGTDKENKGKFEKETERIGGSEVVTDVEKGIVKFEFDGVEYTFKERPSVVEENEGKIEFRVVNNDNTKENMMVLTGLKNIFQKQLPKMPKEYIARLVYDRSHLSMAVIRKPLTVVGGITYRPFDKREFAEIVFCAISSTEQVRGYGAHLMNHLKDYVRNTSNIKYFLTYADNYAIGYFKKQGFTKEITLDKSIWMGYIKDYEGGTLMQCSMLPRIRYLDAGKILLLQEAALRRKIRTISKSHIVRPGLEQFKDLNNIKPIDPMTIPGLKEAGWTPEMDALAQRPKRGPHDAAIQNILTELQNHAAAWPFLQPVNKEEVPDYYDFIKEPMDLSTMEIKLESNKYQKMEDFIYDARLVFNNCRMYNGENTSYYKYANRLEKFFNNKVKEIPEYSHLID
Protocol: as §1, §2

[3] = test system: cyclin A in melanoma cells; assay: cyclin A protein expression, Western blot; format: cell-based; details: 10-20 μM C646
Source text: FIGS. 19A and 19B show the effects of p300/CBP HAT inhibition on cyclin A protein expression in melanoma cells.
Cyclin A is involved in two cell cycle checkpoints. Cyclin A associates with cdk2 to promote S phase progression, and then it associates with cdc2 during the G2 phase.

For `CC1=NN(c2ccc(C(=O)O)cc2)C(=O)C1=Cc1ccc(-c2cc(C)c(C)cc2[N+](=O)[O-])o1` [Compound C646, 4-(4,5-dihydro-3-methyl-4-((5-(4,5-dimethyl-2-nitrophenyl)furan-2-yl)methylene)-5-oxopyrazol-1-yl)benzoic acid], the IC50 (WM983A melanoma cells) was 10 to 20 µM, the IC50 (D54 glioblastoma cells) was 9.3 µM and the inhibition at 10 µM (Sas2/4/5 complex) was under 10%. For the same compound, the 3H-thymidine incorporation [1] was “capable of reducing ^3H-thymidine incorporation in several of these human cancer lines”, the “reaction with thiol (adduct formation)” value [2] was “no evidence of reaction” and the senescence (WM35 melanoma cells) was “induced sensecence in WM35 cells”. For the same compound, the inhibition at 10 µM (yeast GCN5) was under 10% and the “cyclin A protein level” value [3] was “decreases after C646 treatment in a dose-dependent fashion”.
